Values quoted from earlier work in patent publication US20070042999A1, “Phosphate derivatives of pharmaceutical products” (priority 2003, published 2007).

Columns and labels:
[1] = in vivo
[2] = administered orally

SMILES | bioavailability [1] | fraction of the administered dose available in the active form [2]
N[C@@H](Cc1cc(I)c(Oc2cc(I)c(O)c(I)c2)c(I)c1)C(=O)O [Thyroxine, thyroxine] | 50-80% | –
C[C@]12CC[C@H]3[C@@H](CCC4=CC(=O)CC[C@@]43C)[C@@H]1CC[C@@H]2O [testosterone] | – | less than one sixth
